Legend:
Water solubility = format: physicochemical
Description: (§1) These small molecules selectively bind to the ATP pockets of CDK8/19 to inhibit their kinase activity.

CWR22rv1 cells = assay: Growth of androgen-independent CWR22rv1 cells in androgen-depleted CSS media (cell count); format: cell-based; details: for growth (total cell number): 5 μM Senexin B or 10 μM MDV3100 (FIG. 6B)
Description: (§2) In most of CRPC patients, prostate cancer tumor cells restore their AR activities despite low-androgen environment or presence of AR antagonists.

[1] = test system: androgen-responsive genes in LNCaP cells; assay: qPCR expression of androgen-responsive genes in LNCaP cells; format: cell-based
[2] = test system: AR-dependent genes in CWR22rv1 cells; assay: qPCR expression of AR-dependent genes KLK3 (PSA) and KLK2 in CWR22rv1 cells without androgen; format: cell-based; details: for expression of KLK2 / expression of PSA: absence of androgen, 5 μM Senexin B or 10 μM MDV3100 (FIG. 6D)
Description: (§3) Endogenous AR activities in these cells were estimated by qPCR analysis of mRNA expression of AR-dependent genes, KLK3 (PSA) and KLK2.

AR = assay: Promoter activity assay (firefly luciferase reporter) in HEK293 cells overexpressing full-length wild-type AR; format: cell-based; details: for activation of androgen-responsive construct (firefly luciferase reporter under PSA gene promoter): HEK-293 cells overexpressing AR, in the presence of R1881 (FIG. 4A, FIG. 5)
LNCaP-LN3 cells = assay: Growth of androgen-independent LNCaP-LN3 cells in androgen-depleted CSS media (cell count); format: cell-based; details: for growth (total cell number): LNCaP-LN3 cells, 5 μM Senexin B or 10 μM MDV3100 (FIG. 6B)
Description: as §2

[3] = test system: AR-dependent genes in C4-2 cells; assay: qPCR expression of AR-dependent genes KLK3 (PSA) and KLK2 in C4-2 cells without androgen; format: cell-based; details: CSS media 2d, treated 24 hours (FIG. 6C)
Description: as §3

[4] = test system: LN-CaP LN3 (LN3) prostate cancer cells xenograft; assay: LNCaP-LN3 xenograft growth in nude mice; format: in vivo, nude male mice; details: 40 mg/kg i.p. daily
Method: 6-8 week-old nude male mice (Jackson Laboratory) were subcutaneously injected with 2 million LN-CaP LN3 (LN3) prostate cancer cells in the right flank, with Matrigel. Visible tumors formed ˜14 days after injection. […] The tumor size was measured by caliper 3 times per week and calculated by the equation length*width*width*0.5. […] At the end of the experiment, mice from each group were sacrificed to determine final tumor weight.

[5] = test system: AR-dependent genes in LNCaP-LN3 cells; assay: qPCR expression of AR-dependent genes KLK3 (PSA) and KLK2 in LNCaP-LN3 cells without androgen; format: cell-based; details: for expression of KLK2 / expression of PSA: LNCaP-LN3 cells, absence of androgen, 5 μM Senexin B or 10 μM MDV3100 (FIG. 6D)
Description: as §3

PC-3 cells = assay: Growth of PC-3 cells in androgen-depleted CSS media (cell count); format: cell-based; details: different concentrations of Senexin B, p<0.05 vs DMSO (FIG. 7)
Description: PC-3 cell growth was previously shown to be inhibited by the inhibition of transcription factor NFκB^43-45, and CDK8/19 inhibition was discovered by Senex to decrease the induction of NFκB transcriptional activity (PCT Publication WO2013/040153).

C4-2 cells = assay: Growth of androgen-independent C4-2 cells in androgen-depleted CSS media (cell count); format: cell-based; details: different concentrations of Senexin B (FIG. 6A)
Description: as §2

CDK8 = CDK8 (Homo sapiens, UniProt P49336); assay: Senexin B inhibition of CDK8 kinase activity (Kd); format: binding
Chain of CDK8 (P49336 whole entry): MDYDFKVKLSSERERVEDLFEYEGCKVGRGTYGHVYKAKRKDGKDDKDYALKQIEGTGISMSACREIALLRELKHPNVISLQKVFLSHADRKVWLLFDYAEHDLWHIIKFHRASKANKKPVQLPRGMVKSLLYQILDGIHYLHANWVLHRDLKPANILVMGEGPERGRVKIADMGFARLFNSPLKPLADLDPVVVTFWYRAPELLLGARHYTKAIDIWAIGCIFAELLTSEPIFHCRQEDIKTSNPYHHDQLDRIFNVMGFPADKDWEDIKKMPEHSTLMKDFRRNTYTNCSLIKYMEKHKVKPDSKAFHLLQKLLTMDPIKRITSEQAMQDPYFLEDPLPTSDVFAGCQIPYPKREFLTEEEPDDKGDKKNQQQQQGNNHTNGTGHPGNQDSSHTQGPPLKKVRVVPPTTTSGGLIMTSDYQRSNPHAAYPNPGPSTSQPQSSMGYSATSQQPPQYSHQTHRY
Description: The invention provides a method for treating prostate cancer in a subject comprising administering to the subject an effective amount of a selective inhibitor of one or more of CDK8 and CDK19. […] For purposes of the invention, “specific inhibitors of CDK8/19” are small molecule compounds that inhibit CDK8 or CDK8 and CDK19 to a greater extent than they inhibit certain other CDKs. In some embodiments, such compounds further inhibit CDK8 to a greater extent than CDK9. In preferred embodiments, such greater extent is at least 2-fold more than CDK9. Compounds that are useful in the invention are described in co-pending US Patent Publications 20120071477 and 20120071477 and PCT Publication WO2013/116786. Extent of inhibition is measured by the assays taught in co-pending PCT Publication WO2013/116786.
as §1

Compound: CN1CCN(C(=O)c2ccc3cc(CCNc4ncnc5ccc(C#N)cc45)ccc3c2)CC1 [Senexin B]
- water solubility (Water solubility): ≤ 50 mM
- growth (total cell number) (CWR22rv1 cells): significantly inhibited
- androgen-independent growth (total cell number) (CWR22rv1 cells; different concentrations of Senexin B (FIG. 6A)): strongly inhibited
- effect on the inhibition of androgen-inhibited genes AR, OPRK1, STXBP6 by androgen ([1]; LNCaP cells, Senexin B 1 μM and 4 μM (FIG. 2C)): did not interfere with the inhibition
- androgen-stimulated transcriptional activation of androgen-responsive genes PSA (KLK3), KLK2, TMPRSS2, SGK1, KLF5, PGC ([1]; LNCaP cells, Senexin B 1 μM and 4 μM, androgen-supplemented (500 pM R1881, 24 hr after 5-day deprivation) (FIG. 2B)): significantly inhibited
- androgen-stimulated transcription of androgen-responsive genes after pretreatment ([1]; androgen-deprived LNCaP cells, Senexin B 1 μM and 4 μM added 1 hr before 500 pM R1881, p<0.05 vs DMSO (FIG. 3)): significantly inhibited
- expression of PSA and KLK2 ([2]; CSS media 2d, treated 24 hours (FIG. 6C)): down-regulated
- expression of KLK2 [2]: strongly down-regulates
- expression of PSA [2]: strongly down-regulates
- activation of androgen-responsive construct (firefly luciferase reporter under PSA gene promoter) (AR): significantly inhibited
- androgen-independent growth (total cell number) (LNCaP-LN3 cells; LN3 cells, different concentrations of Senexin B (FIG. 6A)): strongly inhibited
- growth (total cell number) (LNCaP-LN3 cells): strongly inhibited
- expression of PSA and KLK2 [3]: down-regulated
- appearance (health) of treated mice ([4]; 5 days per week for 2 weeks): looked as healthy as the mice in the vehicle control group
- body weight of the hosts ([4]; 5 days per week for 2 weeks (FIG. 9)): no effects
- tumor growth (tumor volume) ([4]; 5 days per week for 2 weeks, relative to vehicle control (FIG. 8)): dramatically inhibits
- final tumor weight ([4]; 5 days per week for 2 weeks, vs control group (FIG. 10)): significantly lower
- expression of PSA and KLK2 ([5]; LN3 cells, CSS media 2d, treated 24 hours (FIG. 6C)): down-regulated
- expression of KLK2 [5]: strongly down-regulates
- expression of PSA [5]: strongly down-regulates
- growth of PC-3 cells (total cell number) (PC-3 cells): inhibited
- androgen-independent growth (total cell number) (C4-2 cells): strongly inhibited
- Kd (CDK8): 0.14 µM

Compound: CNC(=O)c1ccc(N2C(=S)N(c3ccc(C#N)c(C(F)(F)F)c3)C(=O)C2(C)C)cc1F [MDV3100, enzalutamide, reference compound]
- growth (total cell number) (CWR22rv1 cells): does not inhibit
- expression of KLK2 [2]: does not down-regulate
- expression of PSA [2]: does not down-regulate
- growth (total cell number) (LNCaP-LN3 cells): weakly inhibited
- expression of KLK2 [5]: does not down-regulate
- expression of PSA [5]: weakly down-regulates

Compound: N#Cc1ccc2ncnc(NCCc3ccccc3)c2c1 [Senexin A]
- androgen-stimulated transcriptional activation of androgen-responsive genes PSA (KLK3), KLK2, TMPRSS2, PGC ([1]; LNCaP cells, Senexin A 5 μM, androgen-supplemented (500 pM R1881) or androgen-deprived conditions (FIG. 2A)): significantly inhibited
- activation of androgen-responsive construct (firefly luciferase reporter under PGC gene promoter) (AR; HEK293 cells overexpressing AR, Senexin A 1 μM and 5 μM, in the presence of R1881 (FIG. 4B)): significantly inhibits
- activation of androgen-responsive construct (firefly luciferase reporter under PSA gene promoter) (AR): significantly inhibited

From patent US9636342B2, “Method for treating prostate cancer” (UNIVERSITY OF SOUTH CAROLINA, priority 2012, dated 2017)
